Control activity and melting point data for four compounds are collected here from patent US6384040B1, “Condensed 4-thioxopyrimidine derivatives as microbicides” (Syngenta Crop Protection, Inc., priority 1998, dated 2002).

In one data set the test system is Uncinula necator. The data set can be described thus: Action against Uncinula necator on vines. Particulars: vine cuttings sprayed with 200 ppm a.i., infected 24 hours later, evaluation ca. 14 days after infection. In kind it is in vivo. The method, then: Example B-3: Action Against Uncinula necator on Vines
5 week old vine cuttings are sprayed with a spray mixture (200 ppm a.i.) prepared from a wettable powder formulation of the test compound. The plants are infected 24 hours later by conidias from strongly infested vine leafs that are shaken off over the test plants. The plants are then incubated at 26° C. and 60% relative humidity. The evaluation of the fungal infestation is made ca. 14 days after infection.

With `CCCOc1nc2sc(Cl)cc2c(=S)n1CCC` [Compound 1, 6-Chloro-2-propoxy-3-propyl-4-thioxo-thieno[2,3-d]pyrimidine], the control activity entry in the data set with Uncinula necator was “complete control activity”. `CCCOc1nc2sc(Br)cc2c(=S)n1CCC` [Compound 2, 6-bromo-2-propoxy-3-propyl-4-thioxo-thieno[2,3-d]pyrimidine] showed a melting point of 110 to 112 °C. Also, in the data set on Uncinula necator, the control activity result is “complete control activity”.

As to `CCCCn1c(OCCC)nc2sc(Cl)cc2c1=S` [Compound 3, 3-butyl-6-chloro-2-propoxy-4-thioxo-thieno[2,3-d]pyrimidine], the melting point was 68 to 70 °C. The control activity entry with Uncinula necator is recorded as “complete control activity”.

Regarding `CCCCn1c(OCCC)nc2sc(Br)cc2c1=S` [Compound 4, 6-bromo-3-butyl-2-propoxy-4-thioxo-thieno[2,3-d]pyrimidine], the melting point fell in the range of 95 to 97 °C. In addition, the control activity entry with Uncinula necator is reported as “complete control activity”.

In general, melting point refers to the temperature of the solid-liquid transition.
